Reference: publication PMC6821926, “Diaminoquinazoline MMV675968 from Pathogen Box inhibits Acinetobacter baumannii growth through targeting of dihydrofolate reductase” (Scientific Reports, 2019)

Assays:
Assay type in all cases: biochemical
[1] = molecular target: T1, A. baumannii dihydrofolate reductase (AbDHFR) (Acinetobacter baumannii, UniProt A0A098SJI9); assay: DHFR activity assay (A340) in lysate of E. coli BL21(DE3) overexpressing AbDHFR; also E. coli surrogate growth and DHFR activity in treated A. baumannii
T1 construct: gene folA; AbDHFR expressed from pET15b in E. coli BL21(DE3)
T1 sequence (A0A098SJI9 entry or part of it): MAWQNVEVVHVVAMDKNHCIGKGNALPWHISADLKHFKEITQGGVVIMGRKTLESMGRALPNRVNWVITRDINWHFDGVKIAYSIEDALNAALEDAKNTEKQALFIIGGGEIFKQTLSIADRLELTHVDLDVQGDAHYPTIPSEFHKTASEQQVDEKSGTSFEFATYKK

human DHFR (hDHFR) = molecular target: T2, human DHFR (hDHFR) (Homo sapiens, UniProt P00374); assay: DHFR activity assay (A340) in lysate of E. coli BL21(DE3) overexpressing hDHFR
T2 construct: hDHFR (from pL0035) expressed from pET15b in E. coli BL21(DE3)
T2 sequence (P00374 1-187): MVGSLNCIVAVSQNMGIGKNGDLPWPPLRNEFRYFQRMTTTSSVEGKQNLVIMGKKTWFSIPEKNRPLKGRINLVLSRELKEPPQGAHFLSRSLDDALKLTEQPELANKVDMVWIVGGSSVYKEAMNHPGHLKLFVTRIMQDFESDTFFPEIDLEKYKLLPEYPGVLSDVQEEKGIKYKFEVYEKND

[2] = molecular target: T1, A. baumannii dihydrofolate reductase (AbDHFR); assay: DHFR activity assay (A340) in lysate of E. coli BL21(DE3) overexpressing AbDHFR

| SMILES | IC50 [1] | IC50 (human DHFR (hDHFR)) | IC50 [2] |
| --- | --- | --- | --- |
| COc1ccc(OC)c(NCc2ccc3nc(N)nc(N)c3c2Cl)c1 [MMV675968] | 8.5 nM | 492 nM |  |
| CCc1nc(N)nc(N)c1-c1ccc(Cl)cc1 [PYR, pyrimethamine] |  |  | 81.7 nM |
